#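 A five-concentration, 48-hour dose response in 96-well plates underlies each endpoint, interpolated linearly between surrounding concentrations. GI50 marks 50% less growth. TGI: total growth inhibition.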
# Assays:
# Assay in all cases: NCI tumour cell line growth inhibition, 48 h
# [1] = system: DMS 114 small cell lung
# [2] = system: P388/ADR leukemia
# [3] = system: A498 renal
# [4] = system: SF-539 CNS
# [5] = system: RPMI-8226 leukemia
# [6] = system: UACC-257 melanoma
# [7] = system: XF 498 CNS
# [8] = system: SNB-75 CNS
# [9] = system: A549 NSCLC
# [10] = system: SN12K1 renal
# [11] = system: MCF7 breast
# [12] = system: SK-MEL-28 melanoma
# [13] = system: LOX IMVI melanoma
# [14] = system: TK-10 renal
Structure (SMILES),TGI [1],TGI [2],TGI [3],TGI [4],TGI [5],TGI [6],TGI [7],TGI [8],TGI [9],TGI [10],TGI [11],GI50 [2],GI50 [5],TGI [12],GI50 [7],GI50 [10],GI50 [11],TGI [13],TGI [14]
COC(=O)[C@@H]1c2cc3c(c(O)c2[C@@H](OC)C[C@@]1(C)O)C(=O)c1c(O)cc2c(c1C3=O)OC1O[C@@]2(C)[C@H](O)[C@@H](N(C)C)[C@@H]1O,0.633 µM,15 µM,0.764 µM,7.48 µM,> 150 µM,1.21 µM,0.66 µM,0.977 µM,1.45 µM,1.41 µM,6.48 µM,,,,,,,,
[Cl-].[Rh+3].c1ccc(-c2ccnc3c2ccc2c(-c4ccccc4)ccnc23)cc1.c1ccc(-c2ccnc3c2ccc2c(-c4ccccc4)ccnc23)cc1.c1ccc(-c2ccnc3c2ccc2c(-c4ccccc4)ccnc23)cc1,75 µM,> 100 µM,> 83.4 µM,> 76 µM,> 100 µM,> 100 µM,89.3 µM,> 100 µM,> 100 µM,> 87.2 µM,> 100 µM,23.7 µM,29.2 µM,> 100 µM,23.1 µM,29.7 µM,71.3 µM,> 100 µM,
C=C(C)C1Cc2c(cc(O)c3c(=O)c4ccccc4n(C)c23)O1 (centres undefined),> 100 µM,,92.6 µM,,> 100 µM,> 100 µM,41.8 µM,37.2 µM,> 100 µM,,,,,> 100 µM,,,,37.2 µM,34.8 µM
C/C=C(/C)C(=O)O[C@@H]1c2c(C)coc2C[C@H]2CC[C@H](O)[C@H](C)[C@]21C,,,,87 µM,> 100 µM,> 100 µM,,,,,87.8 µM,,,> 100 µM,,,,> 100 µM,> 100 µM
O=[N+]([O-])c1ccc(/C=C/c2ccc(N=Nc3ccc(/C=C/c4ccc([N+](=O)[O-])cc4S(=O)(=O)O)c(S(=O)(=O)O)c3)cc2S(=O)(=O)O)c(S(=O)(=O)O)c1,> 100 µM,> 100 µM,> 100 µM,> 100 µM,,> 100 µM,> 100 µM,> 100 µM,> 100 µM,> 100 µM,> 100 µM,,,> 100 µM,,,,> 100 µM,
COc1ccc(/C(Cl)=C(\C=O)c2ccc(F)cc2)cc1,45.1 µM,,52.7 µM,50.2 µM,44.6 µM,,,8.33 µM,,,,,,> 100 µM,,,,39.3 µM,> 100 µM
CN(C)CCNCc1c2ccccc2c(CNCCN(C)C)c2ccccc12,> 70.1 µM,> 100 µM,55.9 µM,> 73.6 µM,> 100 µM,32.5 µM,> 100 µM,> 100 µM,> 59.9 µM,67.6 µM,79.8 µM,,,> 100 µM,,,,38.7 µM,
